Like-named read-outs stand apart in the source and are kept apart here.
Key:
[1] = system: A375-NRAS^Q61K cells; experiment: CTGlo Cell Viability Assay, A375-NRAS^Q61K (A375.11) cells, 96 hours; type: cell-based, human; settings: Homo sapiens, 96 h, A375.11 (A375-NRAS^Q61K) cells
Procedure, shortened: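 A375 cells carrying BRAF V600E and NRAS Q61K were seeded at 250 cells/well with a 10-point half-log dose series (max 10 μM final). After 96 h at 37 °C, viability was read as ATP luminescence (CellTiter-Glo), background-subtracted and normalized to DMSO (100%). GI50 from 4-parameter fit; Emax is the lowest % viability.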

[2] = biological target: T1, BRAF V600E (Homo sapiens, UniProt P15056+Q96SW2, V600E); experiment: BRAF V600E HiBiT Degradation Assay; type: cell-based; settings: A375.10 cells, BRAF V600E
T1 construct: knock-in of the HiBiT tag to the endogenous BRAF V600E locus; host or cells: A375.10 (A375 clonal line, CRISPR HiBiT knock-in at the endogenous BRAF V600E locus)
T1 sequence (P15056 whole entry V600E): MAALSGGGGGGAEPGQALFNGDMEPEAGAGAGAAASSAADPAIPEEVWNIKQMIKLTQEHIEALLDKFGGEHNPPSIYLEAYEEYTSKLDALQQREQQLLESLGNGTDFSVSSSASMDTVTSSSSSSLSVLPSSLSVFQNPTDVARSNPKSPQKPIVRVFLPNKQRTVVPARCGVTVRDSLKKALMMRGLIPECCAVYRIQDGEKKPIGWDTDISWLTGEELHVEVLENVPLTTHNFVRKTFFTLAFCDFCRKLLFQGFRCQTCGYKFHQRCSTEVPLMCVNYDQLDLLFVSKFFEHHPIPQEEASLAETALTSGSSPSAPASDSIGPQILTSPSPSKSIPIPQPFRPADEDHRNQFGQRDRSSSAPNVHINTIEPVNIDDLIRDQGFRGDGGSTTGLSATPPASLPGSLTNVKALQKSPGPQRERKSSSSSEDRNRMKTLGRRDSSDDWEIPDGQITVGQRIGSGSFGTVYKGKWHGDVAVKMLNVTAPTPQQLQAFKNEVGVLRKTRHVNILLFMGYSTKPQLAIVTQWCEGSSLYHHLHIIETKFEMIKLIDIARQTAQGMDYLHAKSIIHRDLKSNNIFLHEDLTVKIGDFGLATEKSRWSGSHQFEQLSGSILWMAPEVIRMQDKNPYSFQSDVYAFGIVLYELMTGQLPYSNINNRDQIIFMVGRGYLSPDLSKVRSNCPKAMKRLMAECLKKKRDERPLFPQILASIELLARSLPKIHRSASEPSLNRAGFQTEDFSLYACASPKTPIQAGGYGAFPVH
T1 sequence (Q96SW2 whole entry): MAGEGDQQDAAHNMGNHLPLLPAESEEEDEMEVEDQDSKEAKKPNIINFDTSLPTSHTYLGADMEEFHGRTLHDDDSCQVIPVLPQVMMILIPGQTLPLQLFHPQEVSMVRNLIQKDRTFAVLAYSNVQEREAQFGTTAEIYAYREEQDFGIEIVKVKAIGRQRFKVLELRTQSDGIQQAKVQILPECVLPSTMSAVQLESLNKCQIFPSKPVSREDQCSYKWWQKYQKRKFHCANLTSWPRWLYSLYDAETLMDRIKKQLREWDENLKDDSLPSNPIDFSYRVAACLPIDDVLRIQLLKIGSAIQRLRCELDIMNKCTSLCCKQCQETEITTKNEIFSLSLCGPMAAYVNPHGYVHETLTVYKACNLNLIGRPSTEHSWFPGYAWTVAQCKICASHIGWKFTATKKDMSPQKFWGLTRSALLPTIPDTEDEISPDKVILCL
T1 sequence (Q16531 whole entry partner): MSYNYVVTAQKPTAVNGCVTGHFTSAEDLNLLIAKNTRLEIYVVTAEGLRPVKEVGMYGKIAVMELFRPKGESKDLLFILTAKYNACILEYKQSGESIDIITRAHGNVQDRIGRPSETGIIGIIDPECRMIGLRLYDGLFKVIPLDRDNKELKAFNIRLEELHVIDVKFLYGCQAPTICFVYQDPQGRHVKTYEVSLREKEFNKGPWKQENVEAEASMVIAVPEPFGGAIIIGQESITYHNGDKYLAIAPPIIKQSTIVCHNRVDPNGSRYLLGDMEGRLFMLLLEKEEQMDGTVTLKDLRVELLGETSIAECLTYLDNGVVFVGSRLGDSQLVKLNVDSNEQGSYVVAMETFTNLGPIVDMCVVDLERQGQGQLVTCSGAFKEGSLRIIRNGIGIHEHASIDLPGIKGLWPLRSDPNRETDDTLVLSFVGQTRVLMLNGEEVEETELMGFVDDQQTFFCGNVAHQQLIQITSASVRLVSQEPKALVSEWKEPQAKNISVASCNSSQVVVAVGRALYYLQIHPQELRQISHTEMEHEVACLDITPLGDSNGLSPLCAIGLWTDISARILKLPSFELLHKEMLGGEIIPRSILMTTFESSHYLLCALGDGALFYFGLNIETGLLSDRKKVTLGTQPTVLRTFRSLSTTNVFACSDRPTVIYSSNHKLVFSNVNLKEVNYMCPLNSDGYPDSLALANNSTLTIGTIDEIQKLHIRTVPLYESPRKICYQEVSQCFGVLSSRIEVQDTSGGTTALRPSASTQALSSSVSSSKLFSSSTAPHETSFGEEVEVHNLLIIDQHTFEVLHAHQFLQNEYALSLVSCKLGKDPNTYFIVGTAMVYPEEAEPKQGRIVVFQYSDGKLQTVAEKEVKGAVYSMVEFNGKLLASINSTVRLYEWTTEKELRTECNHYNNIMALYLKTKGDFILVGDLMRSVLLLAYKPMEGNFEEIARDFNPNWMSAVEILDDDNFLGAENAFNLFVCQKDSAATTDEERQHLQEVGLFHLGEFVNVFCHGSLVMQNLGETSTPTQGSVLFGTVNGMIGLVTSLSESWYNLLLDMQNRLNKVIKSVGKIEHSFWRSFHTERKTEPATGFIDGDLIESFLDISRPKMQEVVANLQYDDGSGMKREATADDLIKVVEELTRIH
Procedure, shortened: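 Endogenous HiBiT knock-in on BRAF V600E in A375 cells (clone A375.10); 11-point half-log series, top 10 μM, 2, 6 or 24 h at 37° C. Lytic HiBiT luminescence, background-subtracted, normalized to DMSO; 4-parameter fit gives DC50, Emax (residual protein) and IP (inflection point).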

GI50 [1]: < 1000 nM | DC50 ([2]; 2 hours, inflection point, read-out: HiBiT-Degradation A375.10 BRAF 2 hours IP): < 1000 nM | DC50 ([2]; 2 hours, read-out: HiBiT-Degradation A375.10 BRAF 2 hours DC50): < 1000 nM | Emax ([2]; 2 hours, residual protein remaining, read-out: HiBiT-Degradation A375.10 BRAF 2 hours Emax): < 50% | DC50 ([2]; HiBiT, 24 hours, read-out: HiBiT-Degradation A375.10 BRAF 24 hours DC50): < 1000 nM | Emax ([2]; HiBiT, 24 hours, read-out: HiBiT-Degradation A375.10 BRAF 24 hours Emax): < 50% | DC50 ([2]; HiBiT, 24 hours, read-out: HiBiT-Degradation A375.10 BRAF 24 hours IP): < 1000 nM
SMILES: CCN(C)S(=O)(=O)Nc1ccc(F)c(Oc2ccc3ncn(C4CC5(C4)CN(C4CC6(CCN(c7cc8c(cc7F)c(N7CCC(=O)NC7=O)nn8C)CC6)C4)C5)c(=O)c3c2)c1C#N (centres unmarked) [Compound 314, 6-[2-cyano-3-[[ethyl(methyl)sulfamoyl]amino]-6-fluoro-phenoxy]-3-[2-[7-[3-(2,4-dioxohexahydropyrimidin-1-yl)-5-fluoro-1-methyl-indazol-6-yl]-7-azaspiro[3.5]nonan-2-yl]-2-azaspiro[3.3]heptan-6-yl]-4-oxo-quinazoline]
Emax ([1]; lowest % viability achieved): 50 to 90%

Source: US20260297060A1, “COMPOUNDS FOR THE DEGRADATION OF MUTANT BRAF” (C4 THERAPEUTICS, INC., priority 2023, published 2026)
